# Source: patent US5488149A, “Substituted amic acid derivatives” (Banyu Pharmaceutical Co., Ltd., priority 1993, dated 1996)
# Biological target: T1, squalene synthase (Homo sapiens, UniProt P37268)
# T1 construct: A microsome fraction was prepared from human-hepatoma(Hep G2) cells; endogenous in cells; host or cells: Hep G2 (human hepatoma) cells, washed microsome fraction
# T1 sequence (P37268 1-417): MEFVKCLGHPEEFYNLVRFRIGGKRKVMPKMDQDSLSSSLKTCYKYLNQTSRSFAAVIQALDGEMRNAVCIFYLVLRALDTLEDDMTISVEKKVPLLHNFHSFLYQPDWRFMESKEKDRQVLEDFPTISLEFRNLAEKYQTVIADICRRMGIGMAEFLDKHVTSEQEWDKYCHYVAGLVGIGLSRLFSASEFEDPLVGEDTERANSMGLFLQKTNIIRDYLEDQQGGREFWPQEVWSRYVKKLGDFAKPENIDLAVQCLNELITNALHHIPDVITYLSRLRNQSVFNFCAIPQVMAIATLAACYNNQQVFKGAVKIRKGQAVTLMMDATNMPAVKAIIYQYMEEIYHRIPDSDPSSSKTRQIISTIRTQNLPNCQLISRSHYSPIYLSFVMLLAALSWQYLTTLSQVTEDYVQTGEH
# Test: Inhibitory activities against squalene synthase
# Assay type: biochemical
# Details: microsome fraction from human hepatoma (Hep G2) cells; 10 μM [3H]-farnesyl pyrophosphate; pH 7.4; 37° C., 20 minutes; read-out: 50% inhibitory concentration against squalene synthase activity (IC50)
# Method: Inhibitory activities against squalene synthase (1) Preparation of a microsome fraction A microsome fraction was prepared from human-hepatoma(Hep G2) cells by the method of Shechter et al disclosed in J. Biol. Chem., 267, 8628 (1992). Namely, Hep G2 cells were homogenized in the presence of a 0.3M sucrose-1 mM DTT-1 mM EDTA-10 mM Hepes buffer solution (pH 7.4) and various protease inhibitors, and subjected to centrifugal separation at 2000×g for 5 minutes and 10000×g for 15 minutes. The obtained supernatant was further subjected to centrifugal separation at 105000×g for 60 minutes, whereupon the precipitated residue was obtained. This precipitated residue was suspended in the above buffer solution containing various protease inhibitors, and the suspension was further subjected to centrifugal separation at 105000×g for 30 minutes to wash the precipitated residue. This washing operation was repeated three times. The finally obtained precipitated residue was taken as a microsome fraction, which was suspended in the above buffer solution containing no such various protease inhibitors, and the suspension was used for measuring the enzyme activities. (2) Method for measuring squalene synthase activities The enzymatic reaction of the squalene synthase was conducted in accordance with the method of Shechter et al disclosed in J. Biol. Chem., 267, 8628 (1992). […] Biochem., 203, 310 (1992). […] 50% inhibitory concentration against squalene synthase activity
row,IC50 [nM],Compound
1,4.7,"C[C@@H](NC(=O)CC(CC(=O)O)C(=O)O)[C@H](Cc1ccc2ccccc2c1)c1ccc(-c2ccccc2)cc1 (relative stereo) [Example 32, N-{(1RS, 2RS)-2-(4-Biphenylyl)-1-methyl-3-(2-naphthyl)propyl}carbamoylmethylsuccinic acid]"
2,5.4,"C[C@@H](NC(=O)CC(CC(=O)O)C(=O)O)[C@H](Cc1ccc(Cl)cc1)c1ccc(-c2ccccc2)c(F)c1 (relative stereo) [Example 35, N-{(1RS, 2RS)-3-(4-Chlorophenyl)-2-(2-fluoro-4-biphenylyl)-1-methylpropyl}carbamoylmethylsuccinic acid]"
3,1.7,"C[C@@H](NC(=O)CC(CC(=O)O)C(=O)O)[C@@H](/C=C/c1ccc2ccccc2c1)Cc1ccc(Cl)c(Cl)c1 (relative stereo) [Example 102, N-((1RS, 2RS, 3E)-2-(3,4-dichlorobenzyl)-1-methyl-4-(2-naphthyl)-3-butenyl)carbamoylmethylsuccinic acid]"
4,3.1,"CC(CC(=O)O)CC(=O)N[C@H](C)[C@@H](/C=C/c1ccc2ccccc2c1)Cc1ccc(Cl)c(Cl)c1 (relative stereo) [Example 112, 4-{(1RS, 2RS, 3E)-2-(3,4-dichlorobenzyl)-1-1-methyl-4-(2-naphthyl)-3-butenylcarbamoyl}-3-methylbutanoic acid]"
5,3.2,"C[C@H](NC(=O)C[C@H](CC(=O)O)C(=O)O)[C@@H](Cc1ccc(Cl)cc1)c1ccc(-c2ccccc2)cc1 [Example 46 (2R-form), (2R)-2-[N-{(1S, 2S)-2-(4-biphenylyl)-3-(4-chlorophenyl)-1-methylpropyl} -carbamoylmethyl]succinic acid]"
6,3,"C[C@@H]([C@@H](Cc1ccc(Cl)c(Cl)c1)c1ccc(-c2ccccc2)cc1)N(C)C(=O)C[C@@H](CC(=O)O)C(=O)O [Example 49, (2S)-2-[N-{(1S, 2S)-2-(4-Biphenylyl)-3-(3, 4dichlorophenyl) -1-methylpropyl}-N-methylcarbamoylmethyl]succinic acid]"
7,1.4,"C[C@H](NC(=O)CC/C=C/C(=O)O)[C@@H](Cc1ccc(Cl)c(Cl)c1)c1ccc(-c2ccccc2)c(F)c1 [Example 70, (E)-5-[N-{(1S, 2S)-3-(3,4-Dichlorophenyl)-2-(2-fluoro-4-biphenylyl)-1-methylpropyl}carbamoyl]-2-pentenoic acid]"
8,0.5,"C[C@H](NC(=O)C[C@@H](CC(=O)O)C(=O)O)[C@@H](Cc1ccc(Cl)c(Cl)c1)OC(=O)c1ccc2ccccc2c1 [Example 92, (2S)-2-[N-{(1S, 2R)-3-(3,4-dichlorophenyl)-1-methyl-2-(2-naphthoyloxy)propyl}carbamoylmethyl]succinic acid]"
